In patent US20230233569A1 (Revolution Medicines, Inc., priority 2020, published 2023):

What was measured:
Capan-1 (K-Ras G12V) = experiment: CellTiter-Glo cell viability assay, 5-day treatment; format: cell-based; conditions: Homo sapiens, CAPAN-1, 120 h, 5-day treatment; read-out: Capan-1 Cell Viability assay data (K-Ras G12V, IC50)
Outline: (§1)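 Compounds were dispensed directly onto seeded cells and incubated for 5 days, then plates were equilibrated to room temperature for about 30 minutes before luminescence reading. Signals were expressed as percent of the mean DMSO control and fitted with a four-parameter logistic curve.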

NCI-H358 (K-Ras G12C) = experiment: as above; format: cell-based; conditions: Homo sapiens, NCI-H358, 120 h, 5-day treatment; read-out: H358 Cell Viability assay data (K-Ras G12C, IC50)
Outline: as §1

KRAS Q61H = KRAS Q61H (Homo sapiens, UniProt P01116+P62937, Q61H); experiment: Disruption of BRAF RBD interaction with Ras (FRET / MOA assay, with Cyclophilin A); format: biochemical; conditions: KRAS Q61H; read-out: KRAS Q61H FRET data IC50
Chain of KRAS Q61H (P01116 1-169 isoform P01116-2 Q61H limits assumed): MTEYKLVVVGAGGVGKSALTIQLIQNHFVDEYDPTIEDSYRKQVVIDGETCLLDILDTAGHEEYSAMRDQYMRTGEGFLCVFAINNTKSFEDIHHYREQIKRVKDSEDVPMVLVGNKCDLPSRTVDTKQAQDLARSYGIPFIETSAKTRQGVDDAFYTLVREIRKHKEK
Chain of KRAS Q61H (P62937 whole entry): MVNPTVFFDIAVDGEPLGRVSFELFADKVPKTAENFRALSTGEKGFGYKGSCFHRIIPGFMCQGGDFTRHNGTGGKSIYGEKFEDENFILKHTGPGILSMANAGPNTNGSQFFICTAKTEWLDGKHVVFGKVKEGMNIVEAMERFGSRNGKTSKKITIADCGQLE
Outline: (§2)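 IC50 reflects compound-driven Ras:Cyclophilin A ternary complex displacing BRAF RBD, read as lowered TR-FRET ratio relative to DMSO after Eu anti-His (10 nM) and APC anti-GST (50 nM) detection for 1.5 h. Prior incubation 3 h, 25° C, with 12.5 nM GMPPNP-loaded Ras, 50 nM BRAF RBD, 25 μM Cyclophilin A; top compound 30 μM.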

NRAS WT = NRAS WT (Homo sapiens, UniProt P01111+P62937); experiment: as above; format: biochemical; conditions: NRAS WT; read-out: NRAS WT FRET data IC50
Chain of NRAS WT (P01111 whole entry): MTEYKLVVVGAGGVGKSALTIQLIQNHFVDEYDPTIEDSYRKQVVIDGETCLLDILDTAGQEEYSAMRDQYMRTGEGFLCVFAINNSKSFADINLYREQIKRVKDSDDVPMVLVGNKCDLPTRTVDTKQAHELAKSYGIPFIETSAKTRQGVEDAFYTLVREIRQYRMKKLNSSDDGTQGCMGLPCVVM
Chain of NRAS WT (P62937 whole entry): as the sequence (P62937 whole entry) above
Outline: as §2

NRAS Q61R = NRAS Q61R (Homo sapiens, UniProt P01111+P62937, Q61R); experiment: as above; format: biochemical; conditions: NRAS Q61R; read-out: NRAS Q61R FRET data IC50
Chain of NRAS Q61R (P01111 whole entry Q61R): as the sequence (P01111 whole entry) above, with Q61R counted along it
Chain of NRAS Q61R (P62937 whole entry): as the sequence (P62937 whole entry) above
Outline: as §2

NRAS Q61K = NRAS Q61K (Homo sapiens, UniProt P01111+P62937, Q61K); experiment: as above; format: biochemical; conditions: NRAS Q61K; read-out: NRAS Q61K FRET data IC50
Chain of NRAS Q61K (P01111 whole entry Q61K): as the sequence (P01111 whole entry) above, with Q61K counted along it
Chain of NRAS Q61K (P62937 whole entry): as the sequence (P62937 whole entry) above
Outline: as §2

NRAS G12C = NRAS G12C (Homo sapiens, UniProt P01111+P62937, G12C); experiment: as above; format: biochemical; conditions: NRAS G12C; read-out: NRAS G12C FRET data IC50
Chain of NRAS G12C (P01111 whole entry G12C): as the sequence (P01111 whole entry) above, with G12C counted along it
Chain of NRAS G12C (P62937 whole entry): as the sequence (P62937 whole entry) above

KRAS G12D = KRAS G12D (Homo sapiens, UniProt P01116+P62937, G12D); experiment: as above; format: biochemical; conditions: read-out: KRAS G12D FRET data, IC50
Chain of KRAS G12D (P01116 1-169 isoform P01116-2 G12D limits assumed): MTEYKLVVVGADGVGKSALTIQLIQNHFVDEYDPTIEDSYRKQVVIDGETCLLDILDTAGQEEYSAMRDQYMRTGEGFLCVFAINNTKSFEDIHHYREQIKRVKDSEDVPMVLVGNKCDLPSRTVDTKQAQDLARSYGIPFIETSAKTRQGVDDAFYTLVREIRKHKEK
Chain of KRAS G12D (P62937 whole entry): as the sequence (P62937 whole entry) above
Outline: (§3)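 TR-FRET: nucleotide-loaded K-Ras mutant or WT with Cyclophilin A and BRAF RBD, compound 10-point 3-fold from 30 μM final, 3 h at 25° C, then anti-His Eu (10 nM) and anti-GST APC (50 nM) for 1.5 h. Decreased FRET ratio versus DMSO gives IC50.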

KRAS WT = KRAS WT (Homo sapiens, UniProt P01116+P62937); experiment: as above; format: biochemical; conditions: KRAS WT; read-out: KRAS WT FRET data IC50
Chain of KRAS WT (P01116 1-169 isoform P01116-2 limits assumed): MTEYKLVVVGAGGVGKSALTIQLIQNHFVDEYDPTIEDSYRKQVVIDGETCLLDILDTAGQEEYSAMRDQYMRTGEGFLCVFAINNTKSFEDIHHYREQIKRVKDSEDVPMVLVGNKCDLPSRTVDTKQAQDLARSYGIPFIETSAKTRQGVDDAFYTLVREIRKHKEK
Chain of KRAS WT (P62937 whole entry): as the sequence (P62937 whole entry) above
Outline: as §3

KRAS G13D = KRAS G13D (Homo sapiens, UniProt P01116+P62937, G13D); experiment: as above; format: biochemical; conditions: KRAS G13D; read-out: KRAS G13D FRET data IC50
Chain of KRAS G13D (P01116 1-169 isoform P01116-2 G13D limits assumed): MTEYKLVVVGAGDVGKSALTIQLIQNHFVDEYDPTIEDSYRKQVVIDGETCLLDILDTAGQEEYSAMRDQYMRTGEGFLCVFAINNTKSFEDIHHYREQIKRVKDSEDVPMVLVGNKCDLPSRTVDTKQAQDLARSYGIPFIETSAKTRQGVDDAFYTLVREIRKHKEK
Chain of KRAS G13D (P62937 whole entry): as the sequence (P62937 whole entry) above
Outline: as §3

KRAS G12V = KRAS G12V (Homo sapiens, UniProt P01116+P62937, G12V); experiment: as above; format: biochemical; conditions: KRAS G12V; read-out: KRAS G12V FRET data IC50
Chain of KRAS G12V (P01116 1-169 isoform P01116-2 G12V limits assumed): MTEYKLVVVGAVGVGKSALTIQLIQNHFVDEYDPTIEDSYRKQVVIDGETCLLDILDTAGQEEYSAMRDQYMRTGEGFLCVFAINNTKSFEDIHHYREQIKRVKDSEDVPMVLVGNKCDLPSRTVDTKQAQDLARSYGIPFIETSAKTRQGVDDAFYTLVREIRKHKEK
Chain of KRAS G12V (P62937 whole entry): as the sequence (P62937 whole entry) above
Outline: as §3

KRAS G12C = KRAS G12C (Homo sapiens, UniProt P01116+P62937, G12C); experiment: as above; format: biochemical; conditions: read-out: KRAS G12C FRET data, IC50
Chain of KRAS G12C (P01116 1-169 isoform P01116-2 G12C): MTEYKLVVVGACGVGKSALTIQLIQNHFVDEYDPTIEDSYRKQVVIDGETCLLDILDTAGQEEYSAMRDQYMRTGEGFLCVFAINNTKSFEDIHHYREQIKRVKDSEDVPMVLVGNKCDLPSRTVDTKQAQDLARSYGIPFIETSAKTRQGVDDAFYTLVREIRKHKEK
Chain of KRAS G12C (P62937 whole entry): as the sequence (P62937 whole entry) above
Outline: as §3

KRAS G12S = KRAS G12S (Homo sapiens, UniProt P01116+P62937, G12S); experiment: as above; format: biochemical; conditions: read-out: KRAS G12S FRET data, IC50
Chain of KRAS G12S (P01116 1-169 isoform P01116-2 G12S limits assumed): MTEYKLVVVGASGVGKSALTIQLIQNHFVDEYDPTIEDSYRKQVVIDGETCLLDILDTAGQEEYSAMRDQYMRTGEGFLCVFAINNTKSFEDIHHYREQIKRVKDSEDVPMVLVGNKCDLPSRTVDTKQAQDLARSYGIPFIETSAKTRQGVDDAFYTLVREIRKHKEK
Chain of KRAS G12S (P62937 whole entry): as the sequence (P62937 whole entry) above
Outline: as §3

KRAS G13C = KRAS G13C (Homo sapiens, UniProt P01116+P62937, G13C); experiment: as above; format: biochemical; conditions: read-out: KRAS G13C FRET data, IC50
Chain of KRAS G13C (P01116 1-169 isoform P01116-2 G13C): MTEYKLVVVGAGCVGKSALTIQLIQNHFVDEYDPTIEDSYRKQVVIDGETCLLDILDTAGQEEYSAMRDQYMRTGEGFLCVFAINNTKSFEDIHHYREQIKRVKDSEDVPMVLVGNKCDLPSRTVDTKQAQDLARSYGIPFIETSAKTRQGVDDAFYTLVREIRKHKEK
Chain of KRAS G13C (P62937 whole entry): as the sequence (P62937 whole entry) above
Outline: as §3

IC50 (NCI-H358 (K-Ras G12C)) [nM]	IC50 (KRAS Q61H) [nM]	IC50 (NRAS WT) [nM]	IC50 (NRAS Q61R) [nM]	IC50 (NRAS Q61K) [nM]	IC50 (NRAS G12C) [nM]	IC50 (KRAS G12D) [nM]	IC50 (KRAS WT) [nM]	IC50 (KRAS G13D) [nM]	IC50 (KRAS G12V) [nM]	IC50 (KRAS G12C) [nM]	IC50 (KRAS G12S) [nM]	IC50 (KRAS G13C) [nM]	SMILES	IC50 (Capan-1 (K-Ras G12V)) [nM]
100 to 1000	100 to 1000	100 to 1000	100 to 1000	100 to 1000	100 to 1000	1000 to 10000	100 to 1000	100 to 1000	100 to 1000	100 to 1000	100 to 1000	100 to 1000	CCn1c(-c2cccnc2[C@H](C)OC)c2c3cc(ccc31)-c1csc(n1)C[C@H](NC(=O)[C@H](C(C)C)N(C)C(=O)N1CC([C@H](C)NC)C1)C(=O)N1CCC[C@H](N1)C(=O)OCC(C)(C)C2 [Example A535]	100 to 1000
10 to 100	10 to 100	100 to 1000	100 to 1000	10 to 100	10 to 100	100 to 1000	100 to 1000	100 to 1000	100 to 1000	10 to 100	100 to 1000	100 to 1000	CCn1c(-c2cccnc2[C@H](C)OC)c2c3cc(ccc31)-c1csc(n1)C[C@H](NC(=O)[C@H](C(C)C)N(C)C(=O)N1CC[C@@H](O)C1)C(=O)N1CCC[C@H](N1)C(=O)OCC(C)(C)C2 (atropisomer, axis not shown) [Example A376]	10 to 100
10 to 100	100 to 1000	100 to 1000	100 to 1000	100 to 1000	100 to 1000	1000 to 10000	100 to 1000	1000 to 10000	1000 to 10000	100 to 1000	1000 to 10000	1000 to 10000	CCn1c(-c2cccnc2[C@H](C)OC)c2c3cc(ccc31)-c1csc(n1)C[C@H](NC(=O)[C@H](C(C)C)N(C)C(=O)N1CC(C)(OC)C1)C(=O)N1CCC[C@H](N1)C(=O)OCC(C)(C)C2 [Example A299]	100 to 1000
< 10	10 to 100	100 to 1000	100 to 1000	10 to 100	10 to 100	100 to 1000	100 to 1000	100 to 1000	100 to 1000	10 to 100	100 to 1000	100 to 1000	CCn1c(-c2cccnc2[C@H](C)OC)c2c3cc(ccc31)-c1csc(n1)C[C@H](NC(=O)[C@H](C(C)C)N(C)C(=O)N1CC(OC(F)F)C1)C(=O)N1CCC[C@H](N1)C(=O)OCC(C)(C)C2 (atropisomer, axis not shown) [Example A302]	10 to 100
< 10	10 to 100	10 to 100	100 to 1000	10 to 100	10 to 100	100 to 1000	100 to 1000	100 to 1000	100 to 1000	10 to 100	100 to 1000	100 to 1000	CCn1c(-c2cccnc2[C@H](C)OC)c2c3cc(ccc31)-c1csc(n1)C[C@H](NC(=O)[C@H](C(C)C)N(C)C(=O)N1CC([C@H](C)CO)C1)C(=O)N1CCC[C@H](N1)C(=O)OCC(C)(C)C2 (atropisomer, axis not shown) [Example A478]	10 to 100
10 to 100	100 to 1000	100 to 1000	100 to 1000	100 to 1000	100 to 1000	1000 to 10000	100 to 1000	100 to 1000	100 to 1000	100 to 1000	100 to 1000	100 to 1000	CCn1c(-c2cccnc2[C@H](C)OC)c2c3cc(ccc31)-c1csc(n1)C[C@H](NC(=O)[C@H](C(C)C)N(C)C(=O)N1CCC3(CC1)CN(C)CCO3)C(=O)N1CCC[C@H](N1)C(=O)OCC(C)(C)C2 [Example A433]	10 to 100
